The values that follow come from publication PMC9944927, “Mutant structure of metabolic switch protein in complex with monomeric c-di-GMP reveals a potential mechanism of protein-mediated ligand dimerization” (Scientific Reports, 2023).

In assay [1] the target is T1, SmbA (Caulobacter vibrioides, UniProt Q9A5E6).
T1 construct: gene CC_2504; SmbAwt, His6
T1 sequence (Q9A5E6 1-296): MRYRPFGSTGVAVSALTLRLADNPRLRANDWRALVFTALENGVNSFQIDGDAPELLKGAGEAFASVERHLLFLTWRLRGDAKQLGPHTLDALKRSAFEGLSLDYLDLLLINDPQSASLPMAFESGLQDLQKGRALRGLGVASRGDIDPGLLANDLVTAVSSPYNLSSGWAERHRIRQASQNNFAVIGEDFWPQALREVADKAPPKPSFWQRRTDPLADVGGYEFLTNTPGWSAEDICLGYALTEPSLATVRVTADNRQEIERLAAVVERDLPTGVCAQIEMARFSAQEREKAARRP
The assay is described as follows: ITC (apparent Kd); AUC sedimentation shift. Type of assay: binding.

Assay [2] deals with T2, SmbA (Caulobacter vibrioides, UniProt Q9A5E6, DEL198-215).
T2 construct: gene CC_2504; SmbA∆loop, partial loop 7 deletion (fragment 198–215 deleted), His6
T2 sequence (Q9A5E6 with tags, fused parts or gaps DEL198-215): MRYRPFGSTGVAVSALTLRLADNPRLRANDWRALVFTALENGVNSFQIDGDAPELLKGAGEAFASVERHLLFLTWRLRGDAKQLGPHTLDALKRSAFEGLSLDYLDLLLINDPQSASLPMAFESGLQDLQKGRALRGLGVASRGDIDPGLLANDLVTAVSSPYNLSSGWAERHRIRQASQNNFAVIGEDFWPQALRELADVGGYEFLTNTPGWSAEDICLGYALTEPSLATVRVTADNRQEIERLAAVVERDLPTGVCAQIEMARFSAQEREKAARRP
The assay is described as follows: X-ray crystal structure at […] Å; ITC ([…] stoichiometry). The assay is classed as binding.

For `Nc1nc2c(ncn2[C@@H]2O[C@@H]3CO[P@](=O)(O)O[C@H]4[C@@H](O)[C@H](n5cnc6c(=O)[nH]c(N)nc65)O[C@@H]4CO[P@](=O)(O)O[C@H]3[C@H]2O)c(=O)[nH]1` [c-di-GMP], the Kd at SmbA [1] was determined as 300 nM; on SmbA [2], 1800 nM.
